Experimental data published in ChEMBL document CHEMBL1201862, “PubChem BioAssay data set” (2004).
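These data come from cells grown in 96-well plates and exposed to compound for 48 hours at five concentrations. At the GI50, growth is halved.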 The source made the active and inactive calls. Cut-off read from the data, not from the text of the source: active = GI50 up to about 1.1 µM and inactive = higher.

What was measured:
Test in all cases: growth of human tumour cells (NCI), 48 h
MDA-MB-231 = system: MDA-MB-231
M14 = system: M14
MDA-MB-435 = system: MDA-MB-435
SK-MEL-2 = system: SK-MEL-2
OVCAR-5 = system: OVCAR-5
SNB-75 = system: SNB-75
RPMI-8226 = system: RPMI-8226
COLO 205 = system: COLO 205
OVCAR-4 = system: OVCAR-4
MDA-N = system: MDA-N
SK-MEL-28 = system: SK-MEL-28
PC-3 = system: PC-3
OVCAR-3 = system: OVCAR-3
OVCAR-8 = system: OVCAR-8
U-251 = system: U-251
HL-60 = system: HL-60
SF-539 = system: SF-539
HOP-92 = system: HOP-92
786-0 = system: 786-0
DU-145 = system: DU-145
A549 = system: A549
Malme-3M = system: Malme-3M
UO-31 = system: UO-31
NCI-H460 = system: NCI-H460
KM12 = system: KM12
CAKI-1 = system: CAKI-1
CCRF-CEM = system: CCRF-CEM
NCI-H522 = system: NCI-H522
SNB-19 = system: SNB-19
SF-295 = system: SF-295
SR = system: SR
T47D = system: T47D
NCI-H23 = system: NCI-H23
BT-549 = system: BT-549
UACC-257 = system: UACC-257
SW-620 = system: SW-620
K562 = system: K562
RXF 393 = system: RXF 393
ACHN = system: ACHN
A498 = system: A498
MOLT-4 = system: MOLT-4
UACC-62 = system: UACC-62
SK-MEL-5 = system: SK-MEL-5
SN12C = system: SN12C
HT-29 = system: HT-29
HCT-15 = system: HCT-15
NCI/ADR-RES = system: NCI/ADR-RES
HCC 2998 = system: HCC 2998
TK-10 = system: TK-10
NCI-H226 = system: NCI-H226
HCT-116 = system: HCT-116
IGROV-1 = system: IGROV-1
SF-268 = system: SF-268
MCF7 = system: MCF7
EKVX = system: EKVX
Hs-578T = system: Hs-578T
LOX IMVI = system: LOX IMVI
HOP-62 = system: HOP-62

OCC1NC(COC2OC(CO)C(O)C(O)C2O)C(O)C(O)C1O (stereo not given)
GI50 (MDA-MB-231): > 100 µM (inactive)
GI50 (M14): > 100 µM (inactive)
GI50 (MDA-MB-435): > 100 µM (inactive)
GI50 (SK-MEL-2): > 100 µM (inactive)
GI50 (OVCAR-5): > 100 µM (inactive)
GI50 (SNB-75): > 100 µM (inactive)
GI50 (RPMI-8226): > 100 µM (inactive)
GI50 (COLO 205): > 100 µM (inactive)
GI50 (OVCAR-4): > 100 µM (inactive)
GI50 (MDA-N): > 100 µM (inactive)
GI50 (SK-MEL-28): > 100 µM (inactive)
GI50 (PC-3): > 100 µM (inactive)
GI50 (OVCAR-3): > 100 µM (inactive)
GI50 (OVCAR-8): > 100 µM (inactive)
GI50 (U-251): > 100 µM (inactive)
GI50 (HL-60): > 100 µM (inactive)
GI50 (SF-539): > 100 µM (inactive)
GI50 (HOP-92): > 100 µM (inactive)
GI50 (786-0): > 100 µM (inactive)
GI50 (DU-145): > 100 µM (inactive)
GI50 (A549): > 100 µM (inactive)
GI50 (Malme-3M): > 100 µM (inactive)
GI50 (UO-31): > 100 µM (inactive)
GI50 (NCI-H460): > 100 µM (inactive)
GI50 (KM12): > 100 µM (inactive)
GI50 (CAKI-1): > 100 µM (inactive)
GI50 (CCRF-CEM): > 100 µM (inactive)
GI50 (NCI-H522): > 100 µM (inactive)
GI50 (SNB-19): > 100 µM (inactive)
GI50 (SF-295): > 100 µM (inactive)
GI50 (SR): > 100 µM (inactive)
GI50 (T47D): > 100 µM (inactive)
GI50 (NCI-H23): > 100 µM (inactive)
GI50 (BT-549): > 100 µM (inactive)
GI50 (UACC-257): > 100 µM (inactive)
GI50 (SW-620): > 100 µM (inactive)
GI50 (K562): > 100 µM (inactive)
GI50 (RXF 393): > 100 µM (inactive)
GI50 (ACHN): > 100 µM (inactive)
GI50 (A498): > 100 µM (inactive)
GI50 (MOLT-4): > 100 µM (inactive)
GI50 (UACC-62): > 100 µM (inactive)
GI50 (SK-MEL-5): > 100 µM (inactive)
GI50 (SN12C): > 100 µM (inactive)
GI50 (HT-29): > 100 µM (inactive)
GI50 (HCT-15): > 100000 nM
GI50 (NCI/ADR-RES): > 100 µM (inactive)
GI50 (HCC 2998): > 100 µM (inactive)
GI50 (TK-10): > 100 µM (inactive)
GI50 (NCI-H226): > 100 µM (inactive)
GI50 (HCT-116): > 100 µM (inactive)
GI50 (IGROV-1): > 100 µM (inactive)
GI50 (SF-268): > 100 µM (inactive)
GI50 (MCF7): > 100 µM (inactive)

CCC(Cc1cnc2nc(N)nc(N)c2n1)c1ccc(C(=O)NC(CCC(=O)O)C(=O)O)cc1 (stereo not given)
GI50 (M14): 0.000899 µM (active)
GI50 (MDA-MB-435): 0.000736 µM (active)
GI50 (OVCAR-5): 0.01 µM (active)
GI50 (EKVX): 0.249 nM (active)
GI50 (SNB-75): 0.329 µM (active)
GI50 (COLO 205): 3.24 µM (inactive)
GI50 (Hs-578T): 10.7 µM (inactive)
GI50 (MDA-N): 0.000575 µM (active)
GI50 (PC-3): < 0.0001 µM (active)
GI50 (OVCAR-8): 0.000624 µM (active)
GI50 (HL-60): < 0.0001 µM (active)
GI50 (SF-539): 0.01 µM (active)
GI50 (786-0): 0.000146 µM (active)
GI50 (DU-145): 0.000548 µM (active)
GI50 (A549): 0.000507 µM (active)
GI50 (Malme-3M): 0.0127 µM (active)
GI50 (UO-31): 0.000382 µM (active)
GI50 (NCI-H460): 0.000315 µM (active)
GI50 (KM12): 0.00069 µM (active)
GI50 (CAKI-1): 0.01 µM (active)
GI50 (LOX IMVI): 0.247 nM (active)
GI50 (CCRF-CEM): < 0.0001 µM (active)
GI50 (NCI-H522): 0.01 µM (active)
GI50 (SNB-19): 0.00419 µM (active)
GI50 (SF-295): 0.01 µM (active)
GI50 (SR): 0.01 µM (active)
GI50 (T47D): 1.78 µM (inactive)
GI50 (NCI-H23): 0.000621 µM (active)
GI50 (BT-549): > 100 µM (inactive)
GI50 (UACC-257): 0.103 µM (active)
GI50 (SW-620): 0.000176 µM (active)
GI50 (K562): < 0.0001 µM (active)
GI50 (ACHN): 0.000456 µM (active)
GI50 (A498): > 100 µM (inactive)
GI50 (MOLT-4): 0.000264 µM (active)
GI50 (UACC-62): 0.000396 µM (active)
GI50 (SK-MEL-5): 0.00539 µM (active)
GI50 (SN12C): 0.000551 µM (active)
GI50 (HT-29): 0.000327 µM (active)
GI50 (HCT-15): 0.632 nM
GI50 (NCI/ADR-RES): 0.000711 µM (active)
GI50 (TK-10): > 100 µM (inactive)
GI50 (HOP-62): 5.15 nM (active)
GI50 (HCT-116): < 0.0001 µM (active)
GI50 (SF-268): 0.00075 µM (active)
GI50 (MCF7): 0.0628 µM (active)
